According to patent EP0257454A1, “Oil-in-water type fat emulsion of 1-[2-(2,4-dichlorophenyl)-3-methyl-1-pentenyl]-1H-imidazole” (MORISHITA PHARMACEUTICAL CO. LTD., priority 1986, dated 1988):

Tested on: Candida albicans (clinically isolated strain)
Experiment: Activity against Candida albicans infection in mice (survival days)
Format: in vivo
Settings: Mice infected with Candida albicans, tail vein injection; summary of Table 1
Protocol: Activity against Candia albicans: Male CRJ:ICR mice (5 week age, 10 mice per group) were used. The fat emulsion obtained in Example 1; an injection solution (HCO 60 preparation) wherein the compound [I] was dissolved in a concentration of 2 % (w/v) in an aqueous solution of 10 % (w/v) of polyoxyethylene hydrogenated castor oil and 5 % (w/v) of glucose; and a solvent for the HCO 60 preparation (i.e. an aqueous solution of 10 % (w/v) of polyoxyethylene hydrogenated castor oil and 5 % (w/v) of glucose (as a control) The test mice was infected with Candida albicans (clinically isolated strain) by injecting the microorganism in an amount of 5 x 10^6 cells/mouse through the tail vein. One hour after the infection, the test injection products were each injected through the tail vein, and the survival days of mice were measured. The evaluation of effect was calculated by the following formula: Average survival days in each test group T/C = x 100 Average survival days in control group

With `CCC(C)C(=Cn1ccnc1)c1ccc(Cl)cc1Cl` (stereo not shown) [compound [I], 1-[2-(2,4-dichlorophenyl)-3-methyl-1-pentenyl]-1H-imidazole] the “effect against the infection (in words)” value was “remarkedly excellent effect against the infection”.
